According to paper PMC4156305, “Structure Driven Design of Novel Human Ether-A-Go-Go-Related-Gene Channel (hERG1) Activators” (PLoS ONE, 2014):

Biological target: T1, hERG1 (Homo sapiens, UniProt Q12809)
T1 construct: expressed in transfected cells; host or cells: HEK 293
Test: Whole cell patch-clamp of hERG1 currents in transfected HEK 293 cells
Type: cell-based
Parameters: Inactivation ΔV0.3: unit not given here
Settings: for Deactivation Δλ/λcon: deactivation time constant relative to baseline; for Activation V1/2 (mV): shift in voltage-dependence of activation; for Inactivation ΔV0.3: shift in voltage-dependence of inactivation; for Amplitude I/Icon: tail current relative to baseline
Protocol: Transfected HEK cells on glass cover slips were placed in a chamber mounted on a modified stage of an inverted microscope. The chamber was superfused at a rate of 2 mL/min with a normal external solution. The extracellular solution contained (in mM) NaCl 140, KCl 5.4, CaCl2 1, MgCl2 1, HEPES 5, glucose 5.5, pH 7.4, with NaOH. Micropipettes were pulled from borosilicate glass capillary tubes on a programmable horizontal puller (Sutter Instruments, Novato, CA). Standard patch-clamp methods were used to measure the whole cell currents of hERG1 mutants expressed in HEK 293 cells using the AXOPATCH 200B amplifier (Axon Instruments). Unless otherwise indicated, tail currents were recorded when the voltage was returned to −50 mV from +50 mV. Further details on electrophysiological methods are collected in Methods S1.
Electrophysiology Protocol:
The pipette solution contained the following (at mM concentration): KCl 10, K-aspartate 110, MgCl2 5, Na2ATP 5, EGTA 10, HEPES 5, and CaCl2 1. The solution was adjusted to pH 7.2 with KOH. The extracellular solution contained the following (at mM concentration): NaCl 140, KCl 5.4, CaCl2 1, MgCl2 1, HEPES 5, and glucose 5.5. The solution was adjusted to pH 7.4 with NaOH. For IKr measurements, the whole cell configuration of the patch clamp method was used. The series resistance was less than 7
MΩ. The data were sampled at 1 kHz. The holding potential was -80 mV. The activation of hERG tail currents was induced by depolarization to a range of potentials from +50 to -100 mV in 10 mV steps for 1 second. This was followed by repolarization to -100 mV for 1 second to record the tail currents.
-100 mV, a -120 mV 1 second pre-pulse was applied to completely close the hERG channels before subsequent depolarization. All of the tail currents reported in this manuscript represent dofetilide-sensitive currents. The inactivation of hERG was measured by a previously reported triple-pulse protocol5, 6. The holding potential was -80 mV. The hERG channel was first depolarized to +50 mV for 1 second. Recovery from inactivation was achieved using a short pulse (a 10 ms hyperpolarization) to -120 mV, followed by the application of test pulses from -100 to 0 mV for 1 second in 10 mV steps.
A voltage of -100 mV was selected because it was on the flat part of the inactivation-voltage relationship. The methods employed are identical to ones previously reported. […]

[1] = Conc. 50 µM, listed as MC-I-159b

T1 sequence (Q12809 whole entry): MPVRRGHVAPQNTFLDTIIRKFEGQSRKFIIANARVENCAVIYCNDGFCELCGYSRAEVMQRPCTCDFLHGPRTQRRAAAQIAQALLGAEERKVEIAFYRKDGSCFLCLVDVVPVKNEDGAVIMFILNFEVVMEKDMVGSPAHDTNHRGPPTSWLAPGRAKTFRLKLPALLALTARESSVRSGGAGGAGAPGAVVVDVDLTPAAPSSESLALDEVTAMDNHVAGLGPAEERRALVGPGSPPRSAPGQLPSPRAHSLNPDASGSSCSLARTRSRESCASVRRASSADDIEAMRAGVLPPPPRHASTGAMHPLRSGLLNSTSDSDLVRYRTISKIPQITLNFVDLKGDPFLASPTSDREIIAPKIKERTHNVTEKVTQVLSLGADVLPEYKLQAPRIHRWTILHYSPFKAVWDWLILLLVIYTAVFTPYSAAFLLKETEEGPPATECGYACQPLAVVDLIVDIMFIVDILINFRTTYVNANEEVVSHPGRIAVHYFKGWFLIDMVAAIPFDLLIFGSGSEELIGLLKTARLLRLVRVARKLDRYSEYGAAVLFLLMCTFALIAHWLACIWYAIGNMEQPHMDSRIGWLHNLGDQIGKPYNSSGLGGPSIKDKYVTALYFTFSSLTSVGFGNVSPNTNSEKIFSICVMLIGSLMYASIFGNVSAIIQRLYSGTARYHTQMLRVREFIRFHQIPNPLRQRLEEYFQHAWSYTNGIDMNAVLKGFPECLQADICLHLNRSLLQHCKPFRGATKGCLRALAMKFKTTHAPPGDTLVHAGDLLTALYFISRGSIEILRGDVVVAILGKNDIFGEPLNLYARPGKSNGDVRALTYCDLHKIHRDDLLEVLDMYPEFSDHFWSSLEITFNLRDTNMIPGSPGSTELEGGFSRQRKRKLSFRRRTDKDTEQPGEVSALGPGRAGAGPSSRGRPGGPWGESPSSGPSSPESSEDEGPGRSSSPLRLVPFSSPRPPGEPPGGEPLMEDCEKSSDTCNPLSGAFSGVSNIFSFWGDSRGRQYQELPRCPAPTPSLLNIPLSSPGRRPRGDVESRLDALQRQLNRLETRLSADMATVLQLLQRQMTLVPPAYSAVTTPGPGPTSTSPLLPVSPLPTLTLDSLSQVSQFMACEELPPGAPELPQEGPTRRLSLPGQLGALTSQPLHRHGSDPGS

SMILES: C[C@H](NCc1ccccc1)C(=O)NC(=O)Nc1cc(C(F)(F)F)ccc1O [Compound 2]
- Deactivation Δλ/λcon (Conc. 20 µM): 0.6±0.4
- Activation V1/2 (mV) (Conc. 20 µM): −14.5±5.5 mV
- Inactivation ΔV0.3 (Conc. 20 µM): −21±0.0
- Amplitude I/Icon (Conc. 20 µM): 0.4±0.02

SMILES: C[C@H](NCc1ccc(F)cc1)C(=O)NC(=O)Nc1cc(C(F)(F)F)ccc1O [Compound 3]
- Deactivation Δλ/λcon (Conc. 2 µM): 1.7±0.3
- Activation V1/2 (mV) (Conc. 2 µM): −17.3±0.3 mV
- Inactivation ΔV0.3 (Conc. 2 µM): −7.5±4.5
- Deactivation Δλ/λcon (Conc. 20 µM): 1.7±0.3
- Activation V1/2 (mV) (Conc. 20 µM): −17.3±0.3 mV
- Inactivation ΔV0.3 (Conc. 20 µM): −7.5±4.5
- Amplitude I/Icon (Conc. 20 µM): 0.6±0.14

SMILES: C[C@H](NC(=O)c1ccccc1)C(=O)NC(=O)Nc1cc(C(F)(F)F)ccc1O [Compound 6]
- Deactivation Δλ/λcon (Conc. 20 µM): 0.8±0.1
- Activation V1/2 (mV) (Conc. 20 µM): −3.7±0.7 mV
- Inactivation ΔV0.3 (Conc. 20 µM): −2.5±1.5
- Amplitude I/Icon (Conc. 20 µM): 0.7±0.02

SMILES: C[C@H](NC(=O)c1ccc([N+](=O)[O-])cc1)C(=O)NC(=O)Nc1cc(C(F)(F)F)ccc1O [Compound 7]
- Deactivation Δλ/λcon (Conc. 20 µM): 0.6±0.3
- Activation V1/2 (mV) (Conc. 20 µM): −7±1.1 mV
- Inactivation ΔV0.3 (Conc. 20 µM): −3.5±4.5
- Amplitude I/Icon (Conc. 20 µM): 0.6±0.1

SMILES: COCOc1ccc(C(F)(F)F)cc1NC(=O)NC(=O)[C@H](C)NCc1ccc(F)cc1 [Compound 8]
- Deactivation Δλ/λcon (Conc. 20 µM): −0.1±0.04
- Activation V1/2 (mV) (Conc. 20 µM): −12.5±2.5 mV
- Inactivation ΔV0.3 (Conc. 20 µM): −4±8
- Amplitude I/Icon (Conc. 20 µM): 0.1±0.0

SMILES: COCOc1ccc(C(F)(F)F)cc1NC(=O)NC(=O)[C@H](C)NCc1ccc(Br)cc1 [Compound 9]
- Deactivation Δλ/λcon (Conc. 20 µM): −0.1±0.1
- Activation V1/2 (mV) (Conc. 20 µM): −9.1±2.1 mV
- Inactivation ΔV0.3 (Conc. 20 µM): −3.5±1.5
- Amplitude I/Icon (Conc. 20 µM): 0.5±0.1

SMILES: COCOc1ccc(C(F)(F)F)cc1NC(=O)NC(=O)[C@H](C)NCc1ccc(C(F)(F)F)cc1 [Compound 10]
- Deactivation Δλ/λcon (Conc. 20 µM): 0.5±0.03
- Activation V1/2 (mV) (Conc. 20 µM): −13.7±3.2 mV
- Inactivation ΔV0.3 (Conc. 20 µM): −12.3±3.4
- Amplitude I/Icon (Conc. 20 µM): 0.4±0.02

SMILES: COCOc1ccc(C(F)(F)F)cc1NC(=O)NC(=O)[C@H](C)NC(=O)c1ccccc1 [Compound 11]
- Deactivation Δλ/λcon (Conc. 20 µM): −0.1±0.2
- Activation V1/2 (mV) (Conc. 20 µM): −12.7±2.7 mV
- Inactivation ΔV0.3 (Conc. 20 µM): −1.5±1.5
- Amplitude I/Icon (Conc. 20 µM): 0.6±0.04

SMILES: COCOc1ccc(C(F)(F)F)cc1NC(=O)NC(=O)[C@H](C)NC(=O)c1ccc([N+](=O)[O-])cc1 [Compound 12]
- Deactivation Δλ/λcon (Conc. 20 µM): −0.1±0.1
- Activation V1/2 (mV) (Conc. 20 µM): −6.3±2.7 mV
- Inactivation ΔV0.3 (Conc. 20 µM): −7.3±1.9
- Amplitude I/Icon (Conc. 20 µM): 0.6±0.19

SMILES: C[C@H](NS(=O)(=O)c1ccc(N)cc1)C(=O)NC(=O)Nc1cc(C(F)(F)F)ccc1O [Compound 13]
- pharmacologic activity (1 µM): no pharmacologic activity
- Activation V1/2 (mV) (Conc. 2 µM): −2±3 mV
- Amplitude I/Icon (Conc. 2 µM): 1.0
- Deactivation Δλ/λcon (Conc. 20 µM): 0.3±0.1
- Activation V1/2 (mV) (Conc. 20 µM): −5±3 mV
- Inactivation ΔV0.3 (Conc. 20 µM): +8±0.4
- Inactivation ΔV0.3 (Conc. 20 µM, listed as MC-I-159b): significantly shifted voltage-dependence of inactivation to depolarized potentials
- Amplitude I/Icon (Conc. 20 µM): 1.0
- Deactivation Δλ/λcon (Conc. 50 µM): 0.5±0.1
- Activation V1/2 (mV) (Conc. 50 µM): −2.5±3.0 mV
- Inactivation ΔV0.3 (Conc. 50 µM): +10±0.6
- Inactivation ΔV0.3 [1]: shifted the voltage-dependence of inactivation to depolarized potentials
- Amplitude I/Icon (Conc. 50 µM): 1±0.03
- Amplitude I/Icon [1]: did not produce pharmacological block

SMILES: C[C@H](NS(=O)(=O)c1ccc([N+](=O)[O-])cc1)C(=O)NC(=O)Nc1cc(C(F)(F)F)ccc1O [Compound 14]
- Deactivation Δλ/λcon (Conc. 2 µM): 0.4±
- Activation V1/2 (mV) (Conc. 2 µM): −3±0.02 mV
- Amplitude I/Icon (Conc. 2 µM): 0.93±0.01
- Deactivation Δλ/λcon (Conc. 50 µM): 0.6±0.3
- Activation V1/2 (mV) (Conc. 50 µM): −7.7±3.0 mV
- Inactivation ΔV0.3 (Conc. 50 µM): 2.5±3.5
- Amplitude I/Icon (Conc. 50 µM): 0.39±0.04
- Amplitude I/Icon (Conc. 50 µM, listed as MC-I-169b): significantly more pharmacologic block
